Assay results taken from patent US6933315B2, “Derivatives of isoindigo, indigo and indirubin and methods of treating cancer” (priority 2001, dated 2005).
Read-outs that look alike come from different tables or passages of the source.

Legend:
cyclin D1 = test: Cyclin D1 protein level by Western blot in HUVEC cells; type: cell-based, human; settings: 24 hrs; for cyclin D1 protein: 15 μM; for expression of cyclin D1: 5.0 and 15 μM
Experimental: Meisoindigo and NATURA also significant inhibit expression of cyclin D1 in HUVEC cells. Exponentially growing HUVEC cells were exposed to 5.0 and 15 μM of Meisoindigo and NATURA, 24 hrs after the exposures, the cells were harvested, washed, and total proteins extracted for Western blot analysis using a monoclonal antibody specific against cyclin D1 (Dako). […] As a result, phosphorylation of a tumor suppressor protein Rb, a native substrate of cyclin D1 mediated cdks, was diminished (data not shown).
HUVEC cells grown exponentially were treated for 24 hrs with […] of Meisoindigo and NATURA. The cells were harvested, washed, and total proteins extracted for Western blot analysis as previously described using antibodies specifically against cyclin D1 (panel A), and b-actin (equal loading control, panel B), and detected by ECL detection kit (Amersham). The levels of cyclin D1 from Panel A were quantitated by an imagine densitometor and normalized by b-action (Panel C).

cdk4/6 = cdk4/6 activity immuno-precipitated from treated LNCaP cells; type: cell-based, Human
Experimental: (§1) Assay for cyclin dependent kinase activity: HUVEC and LNCaP cells were cultured in EMB (endothelial cell basal medium) and RPMI 1640 containing 10% FBS, respectively. The cells grown exponentially were exposed to indicated concentrations of meisoindigo or NATURA for 24 hr. The cells were harvested, washed, and total proteins extracted as described previously. One hundred μg of the proteins were immuno-precipitated using antibodies against cdk2, cdk4/6, PKC, ERK2 or cyclin D1 overnight at 4° C. in the presence of a cocktail of protease inhibitors. The immuno-precipitates were washed 4 times with protein extraction buffer and once with kinase assay buffer, and reacted with 75 μg/ml histone H1 in the presence of [γ-^32P]-ATP (2.5 μCi/10 μM). The phosphorylated histone H1 (represent cdk activity) was measured by scintillation counting or by SDS-polyacrylaimde gel electrophoresis. The direct inhibitory effects of Meisoindigo and NATURA were also measured by reaction of immuno-purified specific enzyme from untreated cells directly with the Meisoindigo or NATURA.
as §1, with “HUVEC” for “Assay for cyclin dependent kinase activity: HUVEC”, “either cdk4/6” for “cdk2, cdk4/6, PKC, ERK2”, “[γ-^32P]-ATP.” for “[γ-^32P]-ATP (2.5 μCi/10 μM).”, “counting.” for “counting or by SDS-polyacrylaimde gel electrophoresis. The direct inhibitory effects of Meisoindigo and NATURA were also measured by reaction of immuno-purified specific enzyme from untreated cells directly with the Meisoindigo or NATURA.”

LNCaP = test: Growth inhibition by MTT, LNCaP prostate cancer cells; type: cell-based, Human; settings: Homo sapiens, LNCaP
Experimental: Growth inhibitory effects of NATURA and other agents on human cancer cells were determined by standard MTT (3-(4,5-dimethylthiazol-2-yl)-2,5-diphenyltetrazolium bromide Test) as described previously. […] The cells in the plates were then exposed to series of dilution of indicated agent. After 72 h of incubation, 100 μl of the medium was removed from each of the wells and 50 μl of a 1 mg/ml solution of 3-(4,5-dimethylthiazol-2-yl)-2,5-diphenyltetrazolium bromide (MTT) was added to each well and the cells were incubated for additional 4 h. 200 μl of solution of 0.04 N HCl-isopropanol was added to each well to dissolve the black fromazan participates, and absorbance at 540 nm was measured on a 96-Well.
The cells in the plates were then exposed to series of dilution of indicated agent. After 72 h of incubation, 100 μl of the medium was removed from each of the wells and 50 μl of a 1 mg/ml solution of 3-(4,5-dimethylthiazol-2-yl)-2,5-diphenyltetrazolium bromide (MTT) was added to each well and the cells were incubated for additional 4 h. 200 μl of solution of 0.04 N HCl-isopropanol was added to each well to dissolve the black fromazan participates, and absorbance at 540 nm was measured on a 96-Well Microplate Reader. Each experiment was repeated at least three times.

SKBR-3 = test: Growth inhibition by MTT, SKBR-3 breast cancer cells; type: cell-based, Human; settings: Homo sapiens, read-out: IC50 SKBR-3
Experimental: Growth inhibitory effects of NATURA and other agents on human cancer cells were determined by standard MTT (3-(4,5-dimethylthiazol-2-yl)-2,5-diphenyltetrazolium bromide Test) as described previously. Briefly, cancer cells grown exponentially were aliquoted into 96-well plates at a density of 5000 cells/200 μl per well in RPMI 1640 medium containing 10% FBS overnight. The cells in the plates were then exposed to series of dilution of indicated agent. After 72 h of incubation, 100 μl of the medium was removed from each of the wells and 50 μl of a 1 mg/ml solution of 3-(4,5-dimethylthiazol-2-yl)-2,5-diphenyltetrazolium bromide (MTT) was added to each well and the cells were incubated for additional 4 h. 200 μl of solution of 0.04 N HCl-isopropanol was added to each well to dissolve the black fromazan participates, and absorbance at 540 nm was measured on a 96-Well.

neuroblastoma N2A cells = test: DNA fragmentation (ladder) in N2A neuroblastoma cells; type: cell-based, Mouse; settings: 5 μM, 2 days
Experimental: Once cancer cells have been arrested at G1 phase by either derivatives of the invention, such as, Meisiondigo or NATURA, they will either differentiate or enter apoptosis. […] FIG. 8 confirms that Meisoindigo and NATURA cause apoptosis. The formation of DNA fragmentation (ladder) were measured, an indicator of cell apoptosis, in both LNCaP prostate and N2A neuroblastoma cells. To do this LNCaP and neuroblastoma N2A cells at exponential growth phase were exposed to indicated concentrations of Meisoindigo or NATURA or Taxol (20 nM, as a positive control) for 2 days. The cells were harvested, washed and DNA extracted. Approximately 2 μg per lane of DNA were subjected to 2% agarose gel electrophoresis.
Induction of Apoptosis: As we mentioned previously that cancer cells probably have two options after arrest at G1 phase, i.e. differentiation or apoptosis. […] To confirm our hypothesis and earlier observations, we measured poly(ADP-ribose) polymerase (PARP) degradation and the formation of DNA fragmentation (ladder), indicators of cell apoptosis, in both LNCaP prostate and N2A neuroblastoma cells. LNCaP and neuroblastoma N2A cells at exponential growth phase were exposed to indicated concentrations of Meisoindigo or NATURA or Taxol (20 nM, as a positive control) for 2 days. The cells were harvested, washed and DNA extracted. […]

[1] = 15 μM, LNCaP cells exposed 24 h
[2] = MTT, 72 h exposure (Table 3), read-out: IC50 LNCaP

Row | SMILES | cyclin D1 protein (cyclin D1) | expression of cyclin D1 (cyclin D1) | inhibition of D cyclins mediated cdk4/6 enzyme activity (cdk4/6; 5.0 μM, LNCaP cells, 24 h) | inhibition of D cyclins mediated cdk4/6 enzyme activity (cdk4/6; [1]) | IC50 (LNCaP; [2]) [nM] | IC50 (SKBR-3; SK-BR-3, 72 h) [nM] | DNA ladders (neuroblastoma N2A cells) | activity on cdk4 compared with cdk2 (cdk4/6; 5 μM, LNCaP cells, 24 hours) | inhibitory affect on cdk4/6 activity compared with same concentration of meisoindigo (cdk4/6; 5.0 μm, FIG. 7) | IC50 (LNCaP; Table 10, read-out: IC50 in LNCaP cells (NATURA and its derivatives)) [nM] | IC50 (SKBR-3; SK-BR-3, MTT, 72 h exposure) [nM]
1 | CN1C(=O)/C(=C2/C(=O)Nc3ccccc32)c2ccccc21 [Meisoindigo] | almost completely lost | strongly inhibit | Over 56% | complete inhibition | 2340 ± 330 | 2170 ± 170 | sufficient to significantly induce DNA ladders | – | – | – | –
2 | CC(=O)OC1COC(N2C(=O)/C(=C3/C(=O)Nc4ccccc43)c3ccccc32)C(OC(C)=O)C1OC(C)=O [NATURA, 1-(β-D-O-Triacetyl-xylopyranosyl)-isoindigo] | almost completely lost | strongly inhibit | Over 56% | complete inhibition | 1720 ± 270 | – | sufficient to significantly induce DNA ladders | slight stronger activity | greater inhibitory affect | 1720 | 1710 ± 140
